The record followed here is ChEMBL document CHEMBL4219237, “Design, synthesis, evaluation, and molecular docking of ursolic acid derivatives containing a nitrogen heterocycle as anti-inflammatory agents” (Bioorg Med Chem Lett, 2018).

Assay [1] deals with HCT-116. Kind of assay: Cytotoxicity against human HCT116 cells assessed as growth inhibition after 24 hrs by MTT assay. It counts as cell-based. As to conditions: HCT-116, 24 h.
Assay [2] has as its system Mus musculus. Kind of assay: Antiinflammatory activity in mouse assessed as inhibition of para-xylene-induced ear edema at 100 mg/kg, ip administered 30 mins prior to para-xylene challenge measured after 30 mins relative to control. In kind it is functional.
The subject of assay [3] is Mus musculus. Kind of assay: Potency index, ratio of test compound to ibuprofen activity in mouse assessed as inhibition of para-xylene-induced ear edema at 100 mg/kg, ip. In kind it is functional.
For assay [4], the system named is Mus musculus. Kind of assay: Antiinflammatory activity in mouse assessed as inhibition of para-xylene-induced ear edema at 125 mg/kg, po measured at 2 hrs relative to control. It counts as functional.
The subject of assay [5] is Mus musculus. The assay can be described thus: Antiinflammatory activity in mouse assessed as inhibition of para-xylene-induced ear edema at 100 mg/kg, po measured at 2 hrs relative to control. It counts as functional.
In assay [6] the test system is Mus musculus. The assay can be described thus: Antiinflammatory activity in mouse assessed as inhibition of para-xylene-induced ear edema at 100 mg/kg, po measured at 5 hrs relative to control. It counts as functional.
Assay [7] has as its system Mus musculus. The assay can be described thus: Antiinflammatory activity in mouse assessed as inhibition of para-xylene-induced ear edema at 100 mg/kg, po measured at 3 hrs relative to control. In kind it is functional.
The test system of assay [8] is Mus musculus. Kind of assay: Antiinflammatory activity in mouse assessed as inhibition of para-xylene-induced ear edema at 50 mg/kg, po measured at 2 hrs relative to control. In kind it is functional.
For assay [9], the system named is Mus musculus. The assay can be described thus: Antiinflammatory activity in mouse assessed as inhibition of para-xylene-induced ear edema at 25 mg/kg, po measured at 2 hrs relative to control. In kind it is functional.
Assay [10] concerns Mus musculus. Kind of assay: Antiinflammatory activity in mouse assessed as inhibition of para-xylene-induced ear edema at 100 mg/kg, po measured at 1 hr relative to control. It counts as functional.
Assay [11] relates to Mus musculus. Kind of assay: Antiinflammatory activity in mouse assessed as inhibition of para-xylene-induced ear edema at 100 mg/kg, po measured at 4 hrs relative to control. It counts as functional.
Assay [12] concerns L02. The assay can be described thus: Cytotoxicity against human L02 cells assessed as growth inhibition after 24 hrs by MTT assay. It counts as cell-based. The following applies: L02, 24 h.
Assay [13] relates to AGS. Kind of assay: Cytotoxicity against human AGS cells assessed as growth inhibition after 24 hrs by MTT assay. In kind it is cell-based.

Some results are limits rather than exact numbers.

As for `Cc1ccc(-c2nnc(COC(=O)[C@]34CC[C@@H](C)[C@H](C)[C@H]3C3=CC[C@@H]5[C@@]6(C)CC[C@H](O)C(C)(C)[C@@H]6CC[C@@]5(C)[C@]3(C)CC4)o2)cc1`, the IC50 in [1] is greater than 100 µM. For the same compound, the inhibition in vivo at 100 mg/kg in [2] came out at 58.2%.
For the compound `C[C@H]1[C@H](C)CC[C@]2(C(=O)OCCCCCn3ncn(-c4ccccc4)c3=O)CC[C@]3(C)C(=CC[C@@H]4[C@@]5(C)CC[C@H](O)C(C)(C)[C@@H]5CC[C@]43C)[C@H]12`, in assay [3], the Ratio worked out at 2. In assay [1], the IC50 was greater than 100 µM. In assay [2], the inhibition in vivo at 100 mg/kg was found to be 56.7%.
Consider `C[C@H]1[C@H](C)CC[C@]2(C(=O)OCc3nnc(-c4ccccc4)o3)CC[C@]3(C)C(=CC[C@@H]4[C@@]5(C)CC[C@H](O)C(C)(C)[C@@H]5CC[C@]43C)[C@H]12`, for which the IC50 in assay [1] is greater than 100 µM. In addition, in assay [2], the inhibition in vivo at 100 mg/kg is 62.3%.
For `C[C@H]1[C@H](C)CC[C@]2(C(=O)OCc3nnc(-c4ccc(Cl)cc4)o3)CC[C@]3(C)C(=CC[C@@H]4[C@@]5(C)CC[C@H](O)C(C)(C)[C@@H]5CC[C@]43C)[C@H]12`, the IC50 in [1] is greater than 100 µM.
As to `C[C@H]1[C@H](C)CC[C@]2(C(=O)OCc3nnc(-c4ccc(Br)cc4)o3)CC[C@]3(C)C(=CC[C@@H]4[C@@]5(C)CC[C@H](O)C(C)(C)[C@@H]5CC[C@]43C)[C@H]12`, the IC50 in assay [1] was greater than 100 µM. For the same compound, in [2], the inhibition in vivo at 100 mg/kg is 68.9%.
For `C[C@H]1[C@H](C)CC[C@]2(C(=O)OCCn3ncn(-c4ccccc4)c3=O)CC[C@]3(C)C(=CC[C@@H]4[C@@]5(C)CC[C@H](O)C(C)(C)[C@@H]5CC[C@]43C)[C@H]12` the same measures were greater than 100 µM and 64.2%.
As for `C[C@H]1[C@H](C)CC[C@]2(C(=O)OCCCCn3ncn(-c4ccccc4)c3=O)CC[C@]3(C)C(=CC[C@@H]4[C@@]5(C)CC[C@H](O)C(C)(C)[C@@H]5CC[C@]43C)[C@H]12`, in assay [3], the Ratio turned out to be 2. In addition, the IC50 in assay [1] was greater than 100 µM. For the same compound, the inhibition in vivo at 100 mg/kg in assay [2] was 66.1%.
For `C[C@H]1[C@H](C)CC[C@]2(C(=O)OCCCN3CCN(Cc4nnc(-c5ccccc5Cl)o4)CC3)CC[C@]3(C)C(=CC[C@@H]4[C@@]5(C)CC[C@H](O)C(C)(C)[C@@H]5CC[C@]43C)[C@H]12`, in assay [1], the IC50 is greater than 100 µM. Also, the inhibition in vivo at 100 mg/kg in assay [2] was found to be 32%.
In the case of `C[C@H]1[C@H](C)CC[C@]2(C(=O)OCCCN3CCN(Cc4nnc(-c5ccc(F)cc5)o4)CC3)CC[C@]3(C)C(=CC[C@@H]4[C@@]5(C)CC[C@H](O)C(C)(C)[C@@H]5CC[C@]43C)[C@H]12`, the IC50 in assay [1] is greater than 100 µM. Moreover, the inhibition in vivo at 100 mg/kg in assay [2] was 58.7%.
Take `C[C@H]1[C@H](C)CC[C@]2(C(=O)OCCN3CCN(Cc4nnc(-c5cccc(Br)c5)o4)CC3)CC[C@]3(C)C(=CC[C@@H]4[C@@]5(C)CC[C@H](O)C(C)(C)[C@@H]5CC[C@]43C)[C@H]12`: in [1], the IC50 was greater than 100 µM. The inhibition in vivo at 100 mg/kg in assay [2] came to 61%.
For the compound `CC(C)Cc1ccc(C(C)C(=O)O)cc1` (configuration not stated) [IBUPROFEN], the inhibition in vivo at 100 mg/kg in assay [2] stood at 25.2%.
As to `C[C@H]1[C@H](C)CC[C@]2(C(=O)OCc3nnc(-c4ccccc4Cl)o3)CC[C@]3(C)C(=CC[C@@H]4[C@@]5(C)CC[C@H](O)C(C)(C)[C@@H]5CC[C@]43C)[C@H]12`, in [1], the IC50 is greater than 100 µM. Besides, the inhibition in vivo at 100 mg/kg in [2] turned out to be 38.8%.
In the case of `Cc1ccccc1-c1nnc(COC(=O)[C@]23CC[C@@H](C)[C@H](C)[C@H]2C2=CC[C@@H]4[C@@]5(C)CC[C@H](O)C(C)(C)[C@@H]5CC[C@@]4(C)[C@]2(C)CC3)o1`, the 50% inhibitory concentration (IC50) in assay [1] is greater than 100 µM. The inhibition in vivo at 100 mg/kg in [2] was found to be 57.2%.
For `C[C@H]1[C@H](C)CC[C@]2(C(=O)OCCN3CCN(Cc4nnc(-c5ccccc5)o4)CC3)CC[C@]3(C)C(=CC[C@@H]4[C@@]5(C)CC[C@H](O)C(C)(C)[C@@H]5CC[C@]43C)[C@H]12` the same measures were greater than 100 µM and 59.1%.
With `C[C@H]1[C@H](C)CC[C@]2(C(=O)OCc3nnc(-c4cccc(Br)c4)o3)CC[C@]3(C)C(=CC[C@@H]4[C@@]5(C)CC[C@H](O)C(C)(C)[C@@H]5CC[C@]43C)[C@H]12`, the IC50 in assay [1] is greater than 100 µM. Further, the inhibition in vivo at 100 mg/kg in assay [2] is 53.7%.
As to `C[C@H]1[C@H](C)CC[C@]2(C(=O)O)CC[C@]3(C)C(=CC[C@@H]4[C@@]5(C)CC[C@H](O)C(C)(C)[C@@H]5CC[C@]43C)[C@H]12` [URSOLIC ACID], in [2], the inhibition in vivo at 100 mg/kg amounted to 57.7%.
Turning to `COc1ccc2c(c1)c(CC(=O)O)c(C)n2C(=O)c1ccc(Cl)cc1` [INDOMETHACIN], the inhibition in vivo at 125 mg/kg in [4] was 38.7%. The inhibition in vivo at 100 mg/kg in assay [5] was 30.9 to 33.3%; in [6], 10.3%; in assay [7], 18.6%; in assay [10], 12%; in assay [11], 15.6%; in assay [2] it was 26.8%. In assay [8], the inhibition in vivo at 50 mg/kg turned out to be 22.8%. Further, in assay [9], the inhibition in vivo at 25 mg/kg stood at 4.85%.
With `C[C@H]1[C@H](C)CC[C@]2(C(=O)OCCCN3CCN(Cc4nnc(-c5cccc(Br)c5)o4)CC3)CC[C@]3(C)C(=CC[C@@H]4[C@@]5(C)CC[C@H](O)C(C)(C)[C@@H]5CC[C@]43C)[C@H]12`, the concentration for half-maximal inhibition (IC50) in assay [1] was greater than 100 µM. In [2], the inhibition in vivo at 100 mg/kg is 66.5%.
With `Cc1cccc(-c2nnc(COC(=O)[C@]34CC[C@@H](C)[C@H](C)[C@H]3C3=CC[C@@H]5[C@@]6(C)CC[C@H](O)C(C)(C)[C@@H]6CC[C@@]5(C)[C@]3(C)CC4)o2)c1`, in [1], the IC50 was greater than 100 µM.
For the compound `C[C@H]1[C@H](C)CC[C@]2(C(=O)OCCCN3CCN(Cc4nnc(-c5ccccc5)o4)CC3)CC[C@]3(C)C(=CC[C@@H]4[C@@]5(C)CC[C@H](O)C(C)(C)[C@@H]5CC[C@]43C)[C@H]12`, in assay [1], the IC50 was greater than 100 µM. In assay [2], the inhibition in vivo at 100 mg/kg turned out to be 47.8%.
Take `C[C@H]1[C@H](C)CC[C@]2(C(=O)OCc3nnc(-c4ccccc4Br)o3)CC[C@]3(C)C(=CC[C@@H]4[C@@]5(C)CC[C@H](O)C(C)(C)[C@@H]5CC[C@]43C)[C@H]12`: in [1], the half-maximal inhibitory concentration (IC50) was greater than 100 µM. Besides, the inhibition in vivo at 100 mg/kg in [2] is 55.3%.
For the compound `C[C@H]1[C@H](C)CC[C@]2(C(=O)OCCCn3ncn(-c4ccccc4)c3=O)CC[C@]3(C)C(=CC[C@@H]4[C@@]5(C)CC[C@H](O)C(C)(C)[C@@H]5CC[C@]43C)[C@H]12`, the inhibition in vivo at 125 mg/kg in assay [4] was 50.1%. For the same compound, the inhibition in vivo at 100 mg/kg in [5] was 41.2 to 47.9%; in assay [6], 16.4%; in [7], 29.7%; in assay [10], 22.6%; in assay [11] it was 20.2%; in assay [2], 69.8%. Moreover, the Ratio in assay [3] is given as 2. For the same compound, the IC50 in assay [12] is greater than 200 µM; in assay [13], greater than 200 µM; in [1] it was greater than 100 µM. The inhibition in vivo at 50 mg/kg in [8] amounted to 35.2%. For the same compound, in [9], the inhibition in vivo at 25 mg/kg worked out at 19.7%.
Regarding `C[C@H]1[C@H](C)CC[C@]2(C(=O)OCc3nnc(-c4cccc(Cl)c4)o3)CC[C@]3(C)C(=CC[C@@H]4[C@@]5(C)CC[C@H](O)C(C)(C)[C@@H]5CC[C@]43C)[C@H]12`, the IC50 in assay [1] is greater than 100 µM. The inhibition in vivo at 100 mg/kg in assay [2] came to 65.4%.
